Patent US20070275953A1 (priority 2003, published 2007)
Where two headings read alike, the source gives them in different places.

Assays:
[1] = target: T1, HIV-1 reverse transcriptase (Human immunodeficiency virus type 1 group M subtype B, UniProt P04585); test: HIV-1 in vitro reverse transcriptase activity (fixed-time RNA dependent DNA polymerase assay); type: biochemical; settings: residual RT activity, compound at 10 μM; RT activity without compound set at 100%
T1 construct: fixed-time assay for HIV-1 reverse transcriptase RNA dependent DNA polymerase activity; RT was purchased from Calbiochem; purchased Calbiochem CAL382129-500
Description: For the in vitro inhibition studies of the HIV-1 reverse transcriptase activity, stock solutions of the compounds of the present invention were prepared in dimethyl sulfoxide at a final concentration of 10 mM and kept at room temperature. Nevirapine was purchased from Boehringer Ingelheim. Efavirenz was received from the NIH AIDS Research and Reference Reagent Program.
In vitro inhibition studies used a fixed-time assay for HIV-1 reverse transcriptase RNA dependent DNA polymerase activity. RT was purchased from Calbiochem (ref CAL382129-500). One unit of RT corresponds to the amount of enzyme which incorporates one nanomole of [^3H]TTP in 10 minutes at 37° C.
Assays were performed in a final volume of 50 μl. […] Reaction mixtures were incubated at 37° C. for 10 min. The incorporation rate was determined by a standard trichloroacetic acid precipitation procedure (adapted from Current protocols in molecular biology. Eds Wiley, MGH Harvard medical school) and liquid scintillation counting using a Wallac scintillation counter.
The in vitro activity of the compounds, at a final concentration of 10 μM, on the reverse transcriptase (RT) activity of HIV-1 is derivable from the relative (%) reduction in RT activity. Hereby, the RT activity in the absence of any of the compounds is set at 100%.

P4 cells = test: Cytotoxicity (CC50), MTT assay on P4 cells; type: cell-based; settings: 3 days
Description: (§1) For the antiviral and the cytotoxicity assays, the drugs were diluted in complete DMEM medium. In these experiments, drugs were diluted in triplicate wells in a 96-well plate in six, 5 fold serial dilutions.
(§2) The 50% cytotoxic concentration (CCso) was determined using a protocol adapted from Pauwels et al. (1988. J. Virol. Methods 20(4):309-21). Briefly, flat bottom 96-well plates were filled with 50 μl of complete medium containing 5.10^3 P4 cells. 2 hours later 50 μl of drug solution were added to the cells. Drugs (dissolved in DMEM, see above) were diluted in six, 5-fold serial dilutions from stock solutions in triplicate wells of a 96-well plate. Cells and compounds were incubated at 37° C. in growth medium for 3 days. Cell viability was determined by MTT assays using the Roche Cell Proliferation KIT. The absorbance (λ=570 nm) was measured on a Benchmark™ Microplate Reader (Biorad) and compared with 12 cell control replicates (no drug added). Each assay was performed at least three times for a total of at least nine replicate wells. This method detects both cytostatic and cytolytic effects of drugs.

[2] = test system: HIV-1 with WT (wild type) RT in PBMC; test: Anti-HIV assay on PBMC, WT RT (p24); type: cell-based
Description: Wurzburg Jurkat T cells (subclone JR) were transfected with 10 μg of the circularly permuted infectious molecular clone HIVNL4-3 (Adachi et al., 1986. J. Virol, 59 (2), p 284-291). Two days later, co-cultivation with SupT1 cells (a human T-cell lymphoma cell line) was initiated to facilitate rapid production of progeny virions. Production of virus was measured by using the Innotest HIV Antigen mAb p24 kit (Innogenetics). At the peak of production cultures were harvested and filtered. The virus stocks were stored at −80° C. until used.
Anti-HIV activity of the compounds was tested on Peripheral Blood Mononuclear Cells (PBMCs). These cells were separated from the blood of healthy donor using established procedures. PBMCs were cultured in RPMI medium supplemented with 10% fetal bovine serum (FBS), 1% Penicillin/Streptomycin and 20 U/ml of Interleukin-2.
PBMCs isolated from the blood of healthy donor contain CD4^+ T-lymphocytes which are one of the main targets of HIV in infected individuals.
Briefly, in the anti-HIV assay PBMCs, activated with phytohemagglutinin, were infected with HIV-1. 100 μl of infected PBMCs were seeded in 96-well plate at a concentration of 1 10^5 cells/ml, and 100 μl of the different drugs dilutions were added to the cells. After 4 days of incubation at 37° C., 5% CO2, cells cultures supernatants were collected. The amount of the viral capsid protein p24 in the supernatants was measured using the Innotest HIV Antigen mAb P24 kit (Innogenetics).

[3] = Cytotoxicity (CC50), MTT assay on P4 cells; type: cell-based; settings: human
Description: as §1, §2

Compound	Relative (%) RT activity in vitro (compound added at 10 μM) [1]	CC50 (P4 cells)	EC50 [2]	CC50 at 3 days [3]	EC50 ([2]; Human immunodeficiency virus 1)
CCOC(=O)c1c(OC2CC(C)CC(C)C2)c(CC)c(C)[nH]c1=O (single isomer, unassigned) [Z37inv]	5.5%	64 µM	0.054 µM		
O=C1Nc2ccc(Cl)cc2[C@@](C#CC2CC2)(C(F)(F)F)O1 [Efavirenz, reference compound]				40 µM	
Cc1ccnc2c1NC(=O)c1cccnc1N2C1CC1 [Nevirapine, reference compound]	16.7%			> 100 µM	0.03 µM
CCc1c(C)[nH]c(=O)c(CO)c1OC1CC(C)CC(C)C1 (stereo not shown) [Z45inv]	12.1%	76 µM	0.018 µM		
CCc1c(C)[nH]c(=O)c([N+](=O)[O-])c1OC1CC(C)CC(C)C1 (stereo not shown) [Z91inv, 3-nitro-5-ethyl-6-methyl-4-[(3,5-dimethylcyclohexyl)oxy]pyridine-2(1H)-one]	0%			37.2 µM	< 0.001 µM
CCc1c(C)[nH]c(=O)c(CSC(C)=O)c1OC1CC(C)CC(C)C1 (stereo not shown) [Z114]	0%	8 µM	< 0.001 µM		
CCc1c(C)[nH]c(=O)c(N(C)C)c1OC1CC(C)CC(C)C1 (stereo not shown) [Z150, 3-(dimethylamino)-5-ethyl-6-methyl-4-[(3,5-dimethylcyclohexyl)oxy]pyridine-2(1H)-one]	0.9%			66 µM	
CCc1c(C)[nH]c(=O)c(CN=[N+]=[N-])c1OC1CC(C)CC(C)C1 (stereo not shown) [Z153]	0.7%	54 µM			
CCc1c(C)[nH]c(=O)c(C)c1OC1CC(C)CC(C)C1 (stereo not shown) [Z154]	1.6%	80 µM			
